Test results published in patent US20060211725A1, “Use” (Astellas Pharma Inc., priority 2002, published 2006).
Where “and” joins values, the source holds several entries; their conditions need not be identical. Equal entries are not always repeated. Entries after “also recorded” stand apart in the source; their conditions may differ.

Experiments:
[1] = tested on: antibody against F344 rat glomeruli basement membrane protein; assay: ELISA of plasma antibody against donor GBM (Example 1); format: in vivo; settings: near days 20, 40, 90
Experimental: (§1) Inbred male Lewis rats (LEW) (RT1^I), weighing 250-300 g, were used as kidney transplantation recipients. Inbred male LEW and Fisher (F344) (RT1^IvI), weighing 250-350 g, were used as isograft and allograft donor rats, respectively. Kidney transplantation was performed using the modified technique of Fisher and Lee. [Fisher et al., Surgery, 58:904-914, 1965] Survival of kidney transplant was measured as time of recipient rat survival. Blood and 24 hr urine samples were collected once a week for plasma creatinine, proteinuria, and the measurement of antibody titer against donor glomeruli basement membrane protein (GBM). Kidney grafts were harvested on the 90th day posttranspalantation and subjected to histology and reverse transcriptase-polymerase chain reaction (RT-PCR) analysis. The compound (I), at doses of 10 mg/kg and 20 mg/kg were administered orally to recipient rats daily from day 0 to day 9 after transplantation. Control isograft and allograft recipients received no drug after transplantation.
Specific antibody against F344 rat glomeruli basement membrane protein in plasma from LEW recipients with F344 kidneys were also measured in the isograft, untreated allograft and allograft treated with the compound (I) at doses of 10 mg/kg and 20 mg/kg near days 20, 40, and 90 after transplantation by using ELISA assay.

[2] = tested on: F344 kidney allograft in LEW recipient rats; assay: Kidney graft histology under rescue treatment, modified Banff criteria (Example 3); format: in vivo, rat
Experimental: The rats and kidney transplantation methods described in Example 1 were used. […] The isograft and untreated allograft served as control groups. Blood and urine samples were collected once a week from recipients with kidney grafts described in Example 1 for measuring their plasma creatinine and proteinuria. Plasma creatinine was tested by Sigma Creatinine Kit and proteinuria by Bio-Rad Protein assay.
Using the methods described in Example 1, histological changes of chronic allograft rejection under rescue treatment of the compound (I) were analyzed. Histological sections were blindly evaluated by two histologists and scored semiquantitatively based on modified Banff' criteria for transplant pathology.

[3] = tested on: F344 kidney allograft in LEW recipient rats; assay: Recipient kidney function, treatment with brief tacrolimus (Example 4); format: in vivo, rat
Experimental: The rats and kidney transplantation methods described in Example 1 were used. Tacrolimus at dose of 1 mg/kg from day 0 to day 9 after transplantation, and the compound (I) at doses of 10 mg/kg and 15 mg/kg from day 28 today 60 after transplantation were administered orally to recipient rats. In this study LEW recipients were briefly treated with oral tacrolimus at 1 mg/kg/day for 10 days after transplantation to avoid acute rejection and slow chronic rejection that gradually destroys the F344 kidney graft, resulting in functional and histological changes similar to the chronic rejection in human. The isograft, untreated allograft and allograft treated with tacrolimus 1 mg/kg for 10 days alone served as control groups. Blood and urine samples were collected once a week from recipients with kidney grafts described in Example 1 for measuring their plasma creatinine and proteinuria. Plasma creatinine was tested by Sigma Creatinine Kit and proteinuria by Bio-Rad Protein assay.

[4] = tested on: F344 kidney allograft in LEW recipient rats; assay: Kidney allograft survival, prevention of chronic rejection (Example 1); format: in vivo, rat; settings: 0-9 day; for Survival day: individual rats, n=5; for Survival rate (more than 90 days): untreated allograft 40%
Experimental: as §1

[5] = tested on: F344 kidney allograft in LEW recipient rats; assay: Recipient kidney function: plasma creatinine and proteinuria (Example 1); format: in vivo, rat; settings: weekly for 90 days
Experimental: as §1
The recipient's kidney function was determined by measuring their plasma creatinine and proteinuria once a week for 90 days. Blood and urine samples were collected from recipients with kidney grafts described in the above. Plasma creatinine was tested by Sigma Creatinine Kit and proteinuria by Bio-Rad Protein assay.

[6] = tested on: F344 kidney allograft in LEW recipient rats; assay: Kidney graft histology, modified Banff criteria (Example 1); format: in vivo, rat; settings: for Banff grade: Fibro-intimal Hyperplasia / Banff grade: Glomerulitis / Banff grade: Glomerulosclerosis / Banff grade: Inflammation / Banff grade: Mesangiolysis / Banff grade: Transplant Glomerulopathy / Banff grade: Tubular Atrophy / Banff grade: Tubulitis / Banff grade: Vasculitis: graft day 90, one line per rat; for approximate cumulative reduction in Banff score: fibro-intimal hyperplasia / approximate cumulative reduction in Banff score: glomerulitis / approximate cumulative reduction in Banff score: glomerulosclerosis / approximate cumulative reduction in Banff score: interstitial inflammation / approximate cumulative reduction in Banff score: mesangiolysis / approximate cumulative reduction in Banff score: transplant glomerulopathy / approximate cumulative reduction in Banff score: tubular atrophy / approximate cumulative reduction in Banff score: tubulitis / approximate cumulative reduction in Banff score: vasculitis: vs untreated allograft control
Experimental: as §1
Kidney graft tissues were harvested from recipients on day 90th after transplantation for histological analysis. Graft samples were fixed in 10% NBF and subsequently processed then immediately embedded in ParaPlast™ paraffin embedding media. Samples were sectioned at 3 μm, pre-warmed, deparaffinized, rehydrated, and subsequently stained in one of four processes: Hematoxylin and Eosin, Per-Iodic Acid Schiff, Verhoeff's Combined Elastic Trichrome, and Per-Iodic Acid Silver Methenamine. Histological sections were blindly evaluated by two histologists and scored semiquantitatively based on modified Banff' criteria for transplant pathology. [Solez et al., Kidney Int., 44:411-422, 1993]

[7] = 20 mg/kg for 3 weeks during ongoing chronic rejection, vs untreated allograft control
[8] = rescue, From day 40-70 (20 mg/kg for 3 weeks), one line per rat
[9] = Compound (I) 10 mg/kg PO, 10 mg/kg

C#CCC/C(O)=C(\C#N)C(=O)Nc1ccc(C(F)(F)F)cc1 [Compound (I), (2Z)-2-cyano-3-hydroxy-N-[4-(trifluoromethyl)phenyl]-2-hepten-6-ynamide]
production of antibody against donor GBM in plasma ([1]; 10 mg/kg PO day 0-9): a trend of reduced production of antibody against donor GBM
production of antibody against donor GBM in plasma ([1]; 20 mg/kg PO day 0-9): a trend of reduced production of antibody against donor GBM
approximate cumulative reduction in Banff score: fibro-intimal hyperplasia [2, 7]: ~53%
approximate cumulative reduction in Banff score: glomerulitis [2, 7]: ~38%
approximate cumulative reduction in Banff score: interstitial inflammation [2, 7]: ~50%
approximate cumulative reduction in Banff score: mesangiolysis [2, 7]: ~33%
approximate cumulative reduction in Banff score: transplant glomerulopathy [2, 7]: ~89%
approximate cumulative reduction in Banff score: tubular atrophy [2, 7]: ~42%
approximate cumulative reduction in Banff score: tubulitis [2, 7]: ~70%
approximate cumulative reduction in Banff score: vasculitis [2, 7]: ~92%
Banff grade: Fibro-intimal Hyperplasia [2, 8]: ++ ((++):Grade 2, Moderate); also recorded: − ((−):Grade 0, Normal)
Banff grade: Glomerulitis [2, 8]: + ((+):Grade 1, Mild); also recorded: − ((−):Grade 0, Normal); also recorded: ++ ((++):Grade 2, Moderate)
Banff grade: Glomerulosclerosis [2, 8]: − ((−):Grade 0, Normal); also recorded: + ((+):Grade 1, Mild)
Banff grade: Inflammation [2, 8]: + ((+):Grade 1, Mild); also recorded: ++ ((++):Grade 2, Moderate)
Banff grade: Mesangiolysis [2, 8]: − ((−):Grade 0, Normal); also recorded: + ((+):Grade 1, Mild)
Banff grade: Transplant Glomerulopathy [2, 8]: − ((−):Grade 0, Normal); also recorded: + ((+):Grade 1, Mild)
Banff grade: Tubular Atrophy [2, 8]: − ((−):Grade 0, Normal); also recorded: + ((+):Grade 1, Mild)
Banff grade: Tubulitis [2, 8]: − ((−):Grade 0, Normal)
Banff grade: Vasculitis [2, 8]: +++ ((+++):Grade 3, Severe); also recorded: + ((+):Grade 1, Mild)
proteinuria ([3]; Compound (I) 10 mg/kg day 28 to 60 after brief tacrolimus 1 mg/kg day 0-9): decreased the progression of proteinuria
plasma creatinine level ([3]; Compound (I) 10 mg/kg day 28 to 60 after brief tacrolimus 1 mg/kg day 0-9, entire study period): < 1.5 mg/dL
proteinuria ([3]; Compound (I) 15 mg/kg day 28 to 60 after brief tacrolimus 1 mg/kg day 0-9): decreased the progression of proteinuria
plasma creatinine ([3]; Compound (I) 15 mg/kg/day day 28 to 60 after brief tacrolimus, increased from week 3 to week 9): it was reversed and maintained in a normal level
Survival day [4, 9]: 28 days and > 90 days
Survival rate (more than 90 days) [4, 9]: 80%
Survival day ([4]; Compound (I) 20 mg/kg PO): >90(5) day
Survival rate (more than 90 days) ([4]; Compound (I) 20 mg/kg PO, 20 mg/kg): 100%
plasma creatinine ([5]; 10 mg/kg PO day 0-9): maintained normal creatinine
proteinuria ([5]; 10 mg/kg PO day 0-9): undetectable proteinuria
plasma creatinine ([5]; 20 mg/kg PO day 0-9): maintained normal creatinine
proteinuria ([5]; 20 mg/kg PO day 0-9): undetectable proteinuria
Banff grade: Fibro-intimal Hyperplasia ([6]; 10 mg from day 0-9): ++ ((++):Grade 2, Moderate); also recorded: − ((−):Grade 0, Normal)
Banff grade: Glomerulitis ([6]; 10 mg from day 0-9): + ((+):Grade 1, Mild); also recorded: − ((−):Grade 0, Normal)
Banff grade: Glomerulosclerosis ([6]; 10 mg from day 0-9): − ((−):Grade 0, Normal); also recorded: + ((+):Grade 1, Mild)
Banff grade: Inflammation ([6]; 10 mg from day 0-9): + ((+):Grade 1, Mild); also recorded: ++ ((++):Grade 2, Moderate)
Banff grade: Mesangiolysis ([6]; 10 mg from day 0-9): − ((−):Grade 0, Normal); also recorded: + ((+):Grade 1, Mild)
Banff grade: Transplant Glomerulopathy ([6]; 10 mg from day 0-9): − ((−):Grade 0, Normal); also recorded: + ((+):Grade 1, Mild)
Banff grade: Tubular Atrophy ([6]; 10 mg from day 0-9): + ((+):Grade 1, Mild)
Banff grade: Tubulitis ([6]; 10 mg from day 0-9): − ((−):Grade 0, Normal)
Banff grade: Vasculitis ([6]; 10 mg from day 0-9): + ((+):Grade 1, Mild); also recorded: +++ ((+++):Grade 3, Severe)
approximate cumulative reduction in Banff score: fibro-intimal hyperplasia ([6]; 10 mg/kg PO day 0-9): ~63%
approximate cumulative reduction in Banff score: glomerulitis ([6]; 10 mg/kg PO day 0-9): ~75%
approximate cumulative reduction in Banff score: glomerulosclerosis ([6]; 10 mg/kg PO day 0-9): ~83%
approximate cumulative reduction in Banff score: interstitial inflammation ([6]; 10 mg/kg PO day 0-9): ~50%
approximate cumulative reduction in Banff score: mesangiolysis ([6]; 10 mg/kg PO day 0-9): ~83%
approximate cumulative reduction in Banff score: transplant glomerulopathy ([6]; 10 mg/kg PO day 0-9): ~79%
approximate cumulative reduction in Banff score: tubular atrophy ([6]; 10 mg/kg PO day 0-9): ~40%
approximate cumulative reduction in Banff score: tubulitis ([6]; 10 mg/kg PO day 0-9): ~100%
approximate cumulative reduction in Banff score: vasculitis ([6]; 10 mg/kg PO day 0-9): ~33%
Banff grade: Fibro-intimal Hyperplasia ([6]; 20 mg from day 0-9): ++ ((++):Grade 2, Moderate); also recorded: + ((+):Grade 1, Mild)
Banff grade: Glomerulitis ([6]; 20 mg from day 0-9): ++ ((++):Grade 2, Moderate); also recorded: + ((+):Grade 1, Mild); also recorded: − ((−):Grade 0, Normal)
Banff grade: Glomerulosclerosis ([6]; 20 mg from day 0-9): − ((−):Grade 0, Normal)
Banff grade: Inflammation ([6]; 20 mg from day 0-9): + ((+):Grade 1, Mild)
Banff grade: Mesangiolysis ([6]; 20 mg from day 0-9): − ((−):Grade 0, Normal)
Banff grade: Transplant Glomerulopathy ([6]; 20 mg from day 0-9): − ((−):Grade 0, Normal)
Banff grade: Tubular Atrophy ([6]; 20 mg from day 0-9): + ((+):Grade 1, Mild); also recorded: − ((−):Grade 0, Normal)
Banff grade: Tubulitis ([6]; 20 mg from day 0-9): − ((−):Grade 0, Normal)
Banff grade: Vasculitis ([6]; 20 mg from day 0-9): +++ ((+++):Grade 3, Severe); also recorded: − ((−):Grade 0, Normal)
approximate cumulative reduction in Banff score: fibro-intimal hyperplasia ([6]; 20 mg/kg PO day 0-9): ~44%
approximate cumulative reduction in Banff score: glomerulitis ([6]; 20 mg/kg PO day 0-9): ~38%
approximate cumulative reduction in Banff score: glomerulosclerosis ([6]; 20 mg/kg PO day 0-9): ~100%
approximate cumulative reduction in Banff score: interstitial inflammation ([6]; 20 mg/kg PO day 0-9): ~67%
approximate cumulative reduction in Banff score: mesangiolysis ([6]; 20 mg/kg PO day 0-9): ~100%
approximate cumulative reduction in Banff score: transplant glomerulopathy ([6]; 20 mg/kg PO day 0-9): ~100%
approximate cumulative reduction in Banff score: tubular atrophy ([6]; 20 mg/kg PO day 0-9): ~85%
approximate cumulative reduction in Banff score: tubulitis ([6]; 20 mg/kg PO day 0-9): ~100%
approximate cumulative reduction in Banff score: vasculitis ([6]; 20 mg/kg PO day 0-9): ~50%
